In the NIST ThermoML archive (doi:10.1021/je400332j):

Assays:
[1] = 101.33 kPa, Liquid; for viscosity: Concentric cylinders viscometry; for mass density: Vibrating tube method
[2] = xn = mol fraction of the nth substance listed; conditions: 101 kPa, Liquid; for viscosity: Concentric cylinders viscometry; for mass density: Vibrating tube method

CCn1cc[n+](C)c1.F[B-](F)(F)F [1-ethyl-3-methylimidazolium tetrafluoroborate]
[1]
Conditions	mass density [kg/m3]	viscosity [mPa·s]
293.15 K	1283.9	45.47
298.15 K	1280	37.46
303.15 K	1276.2	31.29
308.15 K	1272.4	26.45
313.15 K	1268.6	22.61
318.15 K	1264.9	19.51
323.15 K	1261.2	17
328.15 K	1257.4	14.92
333.15 K	1253.8	13.2
338.15 K	1250.1	11.76
343.15 K	1246.5	10.54

CCn1cc[n+](C)c1.F[B-](F)(F)F [1-ethyl-3-methylimidazolium tetrafluoroborate] + CCCCCCn1cc[n+](C)c1.F[B-](F)(F)F
[2], x1 = 1
Conditions	mass density [kg/m3]	viscosity [mPa·s]
293.15 K	1283.9	45.47
298.15 K	1280	37.46
303.15 K	1276.2	31.29
308.15 K	1272.4	26.45
313.15 K	1268.6	22.61
318.15 K	1264.9	19.51
323.15 K	1261.2	17
328.15 K	1257.4	14.92
333.15 K	1253.8	13.2
338.15 K	1250.1	11.76
343.15 K	1246.5	10.54

CCn1cc[n+](C)c1.F[B-](F)(F)F [1-ethyl-3-methylimidazolium tetrafluoroborate] + CCCn1cc[n+](C)c1.F[B-](F)(F)F
[2], x1 = 1
Conditions	mass density [kg/m3]	viscosity [mPa·s]
293.15 K	1283.9	45.47
298.15 K	1280	37.46
303.15 K	1276.2	31.29
308.15 K	1272.4	26.45
313.15 K	1268.6	22.61
318.15 K	1264.9	19.51
323.15 K	1261.2	17
328.15 K	1257.4	14.92
333.15 K	1253.8	13.2
338.15 K	1250.1	11.76
343.15 K	1246.5	10.54

CCCCCCn1cc[n+](C)c1.F[B-](F)(F)F [1-hexyl-3-methylimidazolium tetrafluoroborate]
[1]
Conditions	mass density [kg/m3]	viscosity [mPa·s]
293.15 K	1147.5	280.4
298.15 K	1144.1	206.3
303.15 K	1140.6	154.9
308.15 K	1137.2	118.7
313.15 K	1133.7	92.56
318.15 K	1130.3	73.37
323.15 K	1127	59.03
328.15 K	1123.6	48.16
333.15 K	1120.2	39.71
338.15 K	1116.8	33.21
343.15 K	1113.4	28.03

CCCCCCn1cc[n+](C)c1.F[B-](F)(F)F [1-hexyl-3-methylimidazolium tetrafluoroborate] + CCCn1cc[n+](C)c1.F[B-](F)(F)F
[2], x2 = 0
Conditions	mass density [kg/m3]	viscosity [mPa·s]
293.15 K	1147.5	280.4
298.15 K	1144.1	206.3
303.15 K	1140.6	154.9
308.15 K	1137.2	118.7
313.15 K	1133.7	92.56
318.15 K	1130.3	73.37
323.15 K	1127	59.03
328.15 K	1123.6	48.16
333.15 K	1120.2	39.71
338.15 K	1116.8	33.21
343.15 K	1113.4	28.03

CCCn1cc[n+](C)c1.F[B-](F)(F)F [1-propyl-3-methylimidazolium tetrafluoroborate]
[1]
Conditions	mass density [kg/m3]	viscosity [mPa·s]
293.15 K	1239.3	95.44
298.15 K	1235.7	74.04
303.15 K	1232	58.59
308.15 K	1228.3	47.16
313.15 K	1224.7	38.56
318.15 K	1221	31.98
323.15 K	1217.4	26.83
328.15 K	1213.8	22.77
333.15 K	1210.2	19.54
338.15 K	1206.6	16.92
343.15 K	1203	14.77
